# Results published in patent US9006250B2, “4-amino-6-(heterocyclic)picolinates and 6-amino-2-(heterocyclic)pyrimidine-4-carboxylates and their use as herbicides” (Dow AgroSciences, LLC, priority 2013, dated 2015).
# How the values were obtained:
# Test in all cases: Post-Emergent Test II herbicidal activity
# Format in all cases: in vivo
# [1] = tested on: TRZAS: wheat, spring (Triticum aestivum); conditions: post-emergence, 336 h, 14 days, read-out: Visual Growth Reduction (%) 14 Days After Application TRZAS; for pest or weed control at 35 g/ha: 35 g ai/ha; for pest or weed control at 70 g/ha: 70 g ai/ha; for pest or weed control at 140 g/ha: 140 g ai/ha
# Method: (§1) Post-Emergent Test II: Seeds or nutlets of the desired test plant species were planted in Sun Gro Metro-Mix® 360 planting mixture, which typically has a pH of 6.0 to 6.8 and an organic matter content of about 30 percent, in plastic pots with a surface area of 64 square centimeters. When required to ensure good germination and healthy plants, a fungicide treatment and/or other chemical or physical treatment was applied. The plants were grown for 7-21 d in a greenhouse with an approximate 15 h photoperiod which was maintained at about 23-29° C. during the day and 22-28° C. during the night. Nutrients and water were added on a regular basis and supplemental lighting was provided with overhead metal halide 1000-Watt lamps as necessary. The plants were employed for testing when they reached the first or second true leaf stage.
# (§2) A weighed amount, determined by the highest rate to be tested, of each test compound was placed in a 25 mL glass vial and was dissolved in 4 mL of a 97:3 v/v mixture of acetone and DMSO to obtain concentrated stock solutions. […] The concentrated stock solutions obtained were diluted with 20 mL of an aqueous mixture containing acetone, water, isopropyl alcohol, DMSO, Atplus 411F crop oil concentrate, and Triton® X-155 surfactant in a 48.5:39:10:1.5:1.0:0.02 v/v ratio to obtain spray solutions containing the highest application rates. Additional application rates were obtained by serial dilution of 12 mL of the high rate solution into a solution containing 2 mL of 97:3 v/v mixture of acetone and DMSO and 10 mL of an aqueous mixture containing acetone, water, isopropyl alcohol, DMSO, Atplus 411F crop oil concentrate, and Triton X®-155 surfactant in a 48.5:39:10:1.5:1.0:0.02 v/v ratio to obtain ½×, ¼×, ⅛× and 1/16× rates of the high rate. Compound requirements are based upon a 12 mL application volume at a rate of 187 liters per hectare (L/ha). Formulated compounds were applied to the plant material with an overhead Mandel track sprayer equipped with 8002E nozzles calibrated to deliver 187 L/ha over an application area of 0.503 square meters at a spray height of 18 inches […] above the average plant canopy height. Control plants were sprayed in the same manner with the solvent blank.
# (§3) The treated plants and control plants were placed in a greenhouse as described above and watered by subirrigation to prevent wash-off of the test compounds. After 14 d, the condition of the test plants as compared with that of the untreated plants was determined visually and scored on a scale of 0 to 100 percent where 0 corresponds to no injury and 100 corresponds to complete kill.
# [2] = tested on: AMARE: redroot pigweed (Amaranthus retroflexus); conditions: post-emergence, 336 h, 14 days, read-out: Visual Growth Reduction (%) 14 Days After Application AMARE
# Method: as §1, §2, §3
# [3] = tested on: CYPES: yellow nutsedge (Cyperus esculentus); conditions: post-emergence, 336 h, 14 days, read-out: Visual Growth Reduction (%) 14 Days After Application CYPES; for pest or weed control at 35 g/ha: 35 g ai/ha; for pest or weed control at 70 g/ha: 70 g ai/ha; for pest or weed control at 140 g/ha: 140 g ai/ha
# Method: as §1, §2, §3
# [4] = tested on: HELAN: sunflower (Helianthus annuus); conditions: post-emergence, 336 h, 14 days, read-out: Visual Growth Reduction (%) 14 Days After Application HELAN; for pest or weed control at 35 g/ha: 35 g ai/ha; for pest or weed control at 70 g/ha: 70 g ai/ha; for pest or weed control at 140 g/ha: 140 g ai/ha
# Method: as §1, §2, §3
# [5] = tested on: BRSNN: oilseed rape, canola (Brassica napus); conditions: post-emergence, 336 h, 14 days, read-out: Visual Growth Reduction (%) 14 Days After Application BRSNN; for pest or weed control at 35 g/ha: 35 g ai/ha; for pest or weed control at 70 g/ha: 70 g ai/ha; for pest or weed control at 140 g/ha: 140 g ai/ha
# Method: as §1, §2, §3
# [6] = tested on: EPHHL: wild poinsettia (Euphorbia heterophylla); conditions: post-emergence, 336 h, 14 days, read-out: Visual Growth Reduction (%) 14 Days After Application EPHHL; for pest or weed control at 35 g/ha: 35 g ai/ha; for pest or weed control at 70 g/ha: 70 g ai/ha; for pest or weed control at 140 g/ha: 140 g ai/ha
# Method: as §1, §2, §3
# [7] = tested on: ZEAMX: maize, corn (Zea mays); conditions: post-emergence, 336 h, 14 days, read-out: Visual Growth Reduction (%) 14 Days After Application ZEAMX; for pest or weed control at 35 g/ha: 35 g ai/ha; for pest or weed control at 70 g/ha: 70 g ai/ha; for pest or weed control at 140 g/ha: 140 g ai/ha
# Method: as §1, §2, §3
# [8] = tested on: CHEAL: lambsquarters (Chenopodium album); conditions: post-emergence, 336 h, 14 days, read-out: Visual Growth Reduction (%) 14 Days After Application CHEAL; for pest or weed control at 35 g/ha: 35 g ai/ha; for pest or weed control at 70 g/ha: 70 g ai/ha; for pest or weed control at 140 g/ha: 140 g ai/ha
# Method: as §1, §2, §3
# [9] = tested on: ORYSA: rice (Oryza sativa); conditions: post-emergence, 336 h, 14 days, read-out: Visual Growth Reduction (%) 14 Days After Application ORYSA; for pest or weed control at 35 g/ha: 35 g ai/ha; for pest or weed control at 70 g/ha: 70 g ai/ha; for pest or weed control at 140 g/ha: 140 g ai/ha
# Method: as §1, §2, §3
# [10] = tested on: ABUTH: velvetleaf (Abutilon theophrasti); conditions: post-emergence, 336 h, 14 days, read-out: Visual Growth Reduction (%) 14 Days After Application ABUTH; for pest or weed control at 35 g/ha: 35 g ai/ha; for pest or weed control at 70 g/ha: 70 g ai/ha; for pest or weed control at 140 g/ha: 140 g ai/ha
# Method: as §1, §2, §3
# [11] = tested on: ECHCG: barnyardgrass (Echinochloa crus-galli); conditions: post-emergence, 336 h, 14 days, read-out: Visual Growth Reduction (%) 14 Days After Application ECHCG; for pest or weed control at 35 g/ha: 35 g ai/ha; for pest or weed control at 70 g/ha: 70 g ai/ha; for pest or weed control at 140 g/ha: 140 g ai/ha
# Method: as §1, §2, §3
# [12] = tested on: SETFA: giant foxtail (Setaria faberi); conditions: post-emergence, 336 h, 14 days, read-out: Visual Growth Reduction (%) 14 Days After Application SETFA; for pest or weed control at 35 g/ha: 35 g ai/ha; for pest or weed control at 70 g/ha: 70 g ai/ha; for pest or weed control at 140 g/ha: 140 g ai/ha
# Method: as §1, §2, §3
SMILES,pest or weed control at 35 g/ha [1],pest or weed control at 70 g/ha [1],pest or weed control at 140 g/ha [1],pest or weed control at 35 g/ha [3],pest or weed control at 70 g/ha [3],pest or weed control at 140 g/ha [3],pest or weed control at 35 g/ha [4],pest or weed control at 70 g/ha [4],pest or weed control at 35 g/ha [5],pest or weed control at 70 g/ha [5],pest or weed control at 140 g/ha [5],pest or weed control at 35 g/ha [6],pest or weed control at 70 g/ha [6],pest or weed control at 140 g/ha [6],pest or weed control at 35 g/ha [7],pest or weed control at 70 g/ha [7],pest or weed control at 140 g/ha [7],pest or weed control at 35 g/ha [8],pest or weed control at 70 g/ha [8],pest or weed control at 140 g/ha [8],further results
"Nc1c(F)c(-c2ccc3nonc3c2)nc(C(=O)O)c1Cl [Compound 2, 4-Amino-6-(benzo[c][1,2,5]oxadiazol-5-yl)-3-chloro-5-fluoropicolinic acid]",60 to 74%,60 to 74%,60 to 74%,0 to 29%,0 to 29%,0 to 29%,85 to 94%,85 to 94%,60 to 74%,75 to 84%,75 to 84%,60 to 74%,60 to 74%,60 to 74%,60 to 74%,60 to 74%,60 to 74%,95 to 100%,95 to 100%,95 to 100%,pest or weed control at 35 g/ha ([2]; 35 g ai/ha): 95 to 100%; pest or weed control at 70 g/ha ([2]; 70 g ai/ha): 95 to 100%; pest or weed control at 140 g/ha ([2]; 140 g ai/ha): 95 to 100%; pest or weed control at 140 g/ha [4]: 95 to 100%; pest or weed control at 35 g/ha [9]: 0 to 29%; pest or weed control at 70 g/ha [9]: 0 to 29%; pest or weed control at 140 g/ha [9]: 0 to 29%; pest or weed control at 35 g/ha [10]: 75 to 84%; pest or weed control at 70 g/ha [10]: 75 to 84%; pest or weed control at 140 g/ha [10]: 85 to 94%; pest or weed control at 35 g/ha [11]: 60 to 74%; pest or weed control at 70 g/ha [11]: 75 to 84%; pest or weed control at 140 g/ha [11]: 75 to 84%
"COc1cc2nonc2cc1-c1cc(N)c(Cl)c(C(=O)O)n1 [Compound 5, 4-Amino-3-chloro-6-(6-methoxybenzo[c][1,2,5]oxadiazol-5-yl)picolinic acid]",0 to 29%,0 to 29%,0 to 29%,0 to 29%,0 to 29%,0 to 29%,0 to 29%,0 to 29%,0 to 29%,0 to 29%,0 to 29%,0 to 29%,0 to 29%,0 to 29%,0 to 29%,0 to 29%,0 to 29%,0 to 29%,0 to 29%,0 to 29%,pest or weed control at 140 g/ha [4]: 0 to 29%; pest or weed control at 35 g/ha [9]: 0 to 29%; pest or weed control at 70 g/ha [9]: 0 to 29%; pest or weed control at 140 g/ha [9]: 0 to 29%; pest or weed control at 35 g/ha [12]: 0 to 29%; pest or weed control at 70 g/ha [12]: 0 to 29%; pest or weed control at 140 g/ha [12]: 0 to 29%; pest or weed control at 35 g/ha [10]: 0 to 29%; pest or weed control at 70 g/ha [10]: 0 to 29%; pest or weed control at 140 g/ha [10]: 0 to 29%; pest or weed control at 35 g/ha [11]: 0 to 29%; pest or weed control at 70 g/ha [11]: 0 to 29%; pest or weed control at 140 g/ha [11]: 0 to 29%
"COC(=O)c1nc(-c2cc3nonc3cc2F)nc(N)c1OC [Compound 10, Methyl 6-amino-2-(6-fluorobenzo[c][1,2,5]oxadiazol-5-yl)-5-methoxypyrimidine-4-carboxylate]",0 to 29%,0 to 29%,0 to 29%,0 to 29%,0 to 29%,0 to 29%,0 to 29%,0 to 29%,60 to 74%,75 to 84%,75 to 84%,45 to 59%,60 to 74%,75 to 84%,0 to 29%,0 to 29%,0 to 29%,0 to 29%,0 to 29%,0 to 29%,pest or weed control at 35 g/ha [9]: 0 to 29%; pest or weed control at 70 g/ha [9]: 0 to 29%; pest or weed control at 140 g/ha [9]: 0 to 29%; pest or weed control at 35 g/ha [12]: 0 to 29%; pest or weed control at 70 g/ha [12]: 0 to 29%; pest or weed control at 140 g/ha [12]: 0 to 29%; pest or weed control at 35 g/ha [10]: 0 to 29%; pest or weed control at 70 g/ha [10]: 0 to 29%; pest or weed control at 140 g/ha [10]: 0 to 29%; pest or weed control at 35 g/ha [11]: 0 to 29%; pest or weed control at 70 g/ha [11]: 0 to 29%; pest or weed control at 140 g/ha [11]: 0 to 29%
